Experimental data: patent US8691811B2, “Quinazolinone linked pyrrolo[2,1-c][1,4]benzodiazepine hybrids as potential anticancer agents and process for the preparation thereof” (Council of Scientific & Industrial Research, priority 2008, dated 2014)

What was measured:
SR = assay: NCI cytotoxicity (SRB, 48 h), SR; format: cell-based, human; conditions: leukemia
Method: (§1) The C8-linked quinazolinone-PBD hybrid (5d) has been tested against sixty human tumour cell lines derived from nine cancer types (leukemia, non-small cell lung cancer, colon cancer, CNS cancer, melanoma, ovarian cancer, renal cancer, prostate cancer and breast cancer) as per NCI protocol. For each compound, dose response curves for individual cell lines have been measured at a minimum of five concentrations at 10 fold dilutions. A protocol of 48 h continuous drug exposure has been used, and a sulforhodamine B (SRB) protein assay was used to estimate cell viability or growth. The concentration for 50% cell growth inhibition (GI50), total cell growth inhibition (TGI, 0% growth) and 50% cell death (LC50, […]) compared with the control has been calculated (Table-1). Compound 5d has been evaluated for their in vitro cytotoxicity in sixty cell lines from nine human cancer types of lung (Hop-62, NCI-H226, NCI-H522), leukemia (K-562, SR), colon (HCT-116, HCT-15, HCC-2998), CNS(SF-539), melanoma (SK-MEL-5, UACC-62, M14), ovarian (IGROV1), renal (A498), prostate (PC3) breast (BT-549, MDA-MB-435, HS578T) origin. The results are expressed as percent of cell growth determined relative to that of untreated control cells (Table 2). The representative compound 5d has shown significant cytotoxicity against some cancer cell lines.

HCT-116 = assay: NCI cytotoxicity (SRB, 48 h), HCT-116; format: cell-based, human; conditions: HCT-116, colon
Method: as §1

[1] = system: sixty human tumour cell lines; assay: NCI in vitro cytotoxicity screen (SRB, 48 h), all cell lines; format: cell-based; conditions: 48 h exposure
Method: as §1

LOX IMVI = assay: NCI cytotoxicity (SRB, 48 h), LOX IMVI; format: cell-based, human; conditions: melanoma
Method: as §1

HT29 = assay: NCI cytotoxicity (SRB, 48 h), HT29; format: cell-based, human; conditions: HT29, colon
Method: as §1

Melanoma cell lines = assay: NCI cytotoxicity (SRB, 48 h), melanoma panel; format: cell-based, human; conditions: Melanoma panel average
Method: as §1

RPMI-8226 = assay: NCI cytotoxicity (SRB, 48 h), RPMI-8226; format: cell-based, human; conditions: RPMI-8226, leukemia
Method: as §1

OVCAR-3 = assay: NCI cytotoxicity (SRB, 48 h), OVCAR-3; format: cell-based, human; conditions: OVCAR-3, ovarian
Method: as §1

CNS cancer cell lines = assay: NCI cytotoxicity (SRB, 48 h), CNS panel; format: cell-based, human; conditions: CNS panel average
Method: as §1

[2] = system: Non-small cell lung cancer cell lines; assay: NCI cytotoxicity (SRB, 48 h), non-small cell lung panel; format: cell-based, human; conditions: Non-small-cell lung panel average
Method: as §1

SF-539 = assay: NCI cytotoxicity (SRB, 48 h), SF-539; format: cell-based, human; conditions: SF-539, CNS
Method: as §1

CAKI-1 = assay: NCI cytotoxicity (SRB, 48 h), CAKI-1; format: cell-based, human; conditions: CAKI-1, renal
Method: as §1

UO-31 = assay: NCI cytotoxicity (SRB, 48 h), UO-31; format: cell-based, human; conditions: UO-31, renal
Method: as §1

A549/ATCC = assay: NCI cytotoxicity (SRB, 48 h), A549/ATCC; format: cell-based, human; conditions: non-small cell lung
Method: as §1

EKVX = assay: NCI cytotoxicity (SRB, 48 h), EKVX; format: cell-based, human; conditions: non-small cell lung
Method: as §1

NCI-H322M = assay: NCI cytotoxicity (SRB, 48 h), NCI-H322M; format: cell-based, human; conditions: non-small cell lung
Method: as §1

ACHN = assay: NCI cytotoxicity (SRB, 48 h), ACHN; format: cell-based, human; conditions: renal
Method: as §1

RXF 393 = assay: NCI cytotoxicity (SRB, 48 h), RXF 393; format: cell-based, human; conditions: RXF 393, renal
Method: as §1

MOLT-4 = assay: NCI cytotoxicity (SRB, 48 h), MOLT-4; format: cell-based, human; conditions: MOLT-4, leukemia
Method: as §1

OVCAR-4 = assay: NCI cytotoxicity (SRB, 48 h), OVCAR-4; format: cell-based, human; conditions: OVCAR-4, ovarian
Method: as §1

TK-10 = assay: NCI cytotoxicity (SRB, 48 h), TK-10; format: cell-based, human; conditions: TK-10, renal
Method: as §1

UACC-257 = assay: NCI cytotoxicity (SRB, 48 h), UACC-257; format: cell-based, human; conditions: UACC-257, melanoma
Method: as §1

COc1cc2c(cc1OCCCCCOc1ccc(-n3c(C)nc4ccccc4c3=O)cc1)N=C[C@@H]1CCCN1C2=O [5d, 7-methoxy-8-{5-[4-(2-methyl-4-oxo-3,4-dihydro-3-quinazolinyl)phenoxy]pentyloxy-}-(11aS)-1,2,3,11a-tetrahydro-5H-pyrrolo[2,1-c][1,4]benzodiazepine-5-one]
GI50 (SR): 110 nM | GI50 (HCT-116): 150 nM | GI50 ([1]; bound over all sixty cell lines, read-out: GI50 value against sixty cell lines in nine cell panels): < 1730 nM | Log10 GI50 mean graph midpoint (MG_MID) ([1]; human tumour cell lines): −6.63 | Log10 LC50 mean graph midpoint (MG_MID) ([1]; human tumour cell lines): −5.21 | Log10 TGI mean graph midpoint (MG_MID) ([1]; human tumour cell lines): −6.15 | GI50 (LOX IMVI): 150 nM | GI50 (HT29): 260 nM | Log10 GI50 (Melanoma cell lines): −6.65 mol/L | Log10 LC50 (Melanoma cell lines): −5.90 | GI50 (RPMI-8226): 190 nM | GI50 (OVCAR-3): 200 nM | Log10 GI50 (CNS cancer cell lines): −6.59 mol/L | Log10 LC50 (CNS cancer cell lines): −4.88 | Log10 GI50 [2]: −6.59 mol/L | Log10 LC50 [2]: −5.02 | GI50 (SF-539): 220 nM | GI50 (CAKI-1): 190 nM | GI50 (UO-31): 360 nM | GI50 (A549/ATCC): 230 nM | GI50 (EKVX): 870 nM | GI50 (NCI-H322M): 260 nM | GI50 (ACHN): 290 nM | GI50 (RXF 393): 210 nM | GI50 (MOLT-4): 190 nM | GI50 (OVCAR-4): 370 nM | GI50 (TK-10): 310 nM | GI50 (UACC-257): 390 nM
